Measured values taken from the supplement of paper PMC10307832.

Experiments:
Test in all cases: relative viability (nuclei count vs DMSO), 5 days (fraction); higher = more cells survive
[1] = compound: CC1CC(=O)N(C2=CN=C(N=C2N1C3CCCC3)NC4=C(C=C(C=C4)C(=O)NC5CCN(CC5)C)OC)C [NPK76-II-72-1] + CC(=O)c1c(C)c2cnc(Nc3ccc(N4CCNCC4)cn3)nc2n(C2CCCC2)c1=O [Palbociclib] (partner 0.5 µM)
In short: (§1)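 Lung cancer cell lines in 1536-well plates were dosed by pin tool the day after seeding, either with one drug alone or with a fixed anchor-drug dose plus five library-drug doses (not always all listed) in √10 steps. After 5 days, cells were fixed and their nuclei stained in one step (final 0.05% Triton X-100, 1% formaldehyde, 1 ug/ml Hoechst), then counted on 4× images. Relative viability is the nuclei count in treated wells divided by that in vehicle wells. Values are medians of duplicate plates.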

[2] = compound: CC1CC(=O)N(C2=CN=C(N=C2N1C3CCCC3)NC4=C(C=C(C=C4)C(=O)NC5CCN(CC5)C)OC)C [NPK76-II-72-1] + CCNC(=O)c1noc(-c2cc(C(C)C)c(O)cc2O)c1-c1ccc(CN2CCOCC2)cc1 [Luminespib] (partner 0.01 µM)
In short: as §1

NPK76-II-72-1 + AZD7762 = compound: CC1CC(=O)N(C2=CN=C(N=C2N1C3CCCC3)NC4=C(C=C(C=C4)C(=O)NC5CCN(CC5)C)OC)C [NPK76-II-72-1] + NC(=O)Nc1cc(-c2cccc(F)c2)sc1C(=O)N[C@H]1CCCNC1 [AZD7762] (partner 0.2 µM)
In short: as §1

BI-2536 + Palbociclib = compound: CC[C@@H]1C(=O)N(C)c2cnc(Nc3ccc(C(=O)NC4CCN(C)CC4)cc3OC)nc2N1C1CCCC1 [BI-2536] + CC(=O)c1c(C)c2cnc(Nc3ccc(N4CCNCC4)cn3)nc2n(C2CCCC2)c1=O [Palbociclib] (partner 0.5 µM)
In short: as §1

| Cell Line | relative viability ([1]; first compound 0.01 µM) | relative viability ([1]; first compound 0.03162 µM) | relative viability ([1]; first compound 0.1 µM) | relative viability ([1]; first compound 0.3162 µM) | relative viability ([1]; first compound 1 µM) | relative viability ([2]; first compound 0.01 µM) | relative viability ([2]; first compound 0.03162 µM) | relative viability ([2]; first compound 0.1 µM) | relative viability ([2]; first compound 0.3162 µM) | relative viability ([2]; first compound 1 µM) | relative viability (NPK76-II-72-1 + AZD7762; first compound 0.01 µM) | relative viability (NPK76-II-72-1 + AZD7762; first compound 0.03162 µM) | relative viability (NPK76-II-72-1 + AZD7762; first compound 0.1 µM) | relative viability (NPK76-II-72-1 + AZD7762; first compound 0.3162 µM) | relative viability (NPK76-II-72-1 + AZD7762; first compound 1 µM) | relative viability (BI-2536 + Palbociclib; first compound 0.01 µM) | relative viability (BI-2536 + Palbociclib; first compound 0.03162 µM) | relative viability (BI-2536 + Palbociclib; first compound 0.1 µM) | relative viability (BI-2536 + Palbociclib; first compound 0.3162 µM) | relative viability (BI-2536 + Palbociclib; first compound 1 µM) |
| --- | --- | --- | --- | --- | --- | --- | --- | --- | --- | --- | --- | --- | --- | --- | --- | --- | --- | --- | --- | --- |
| 201T | 0.379 | 0.385 | 0.348 | 0.356 | 0.364 | 1.05 | 1.04 | 0.998 | 1.04 | 1.09 | 0.579 | 0.759 | 0.62 | 0.618 | 0.619 | 0.367 | 0.344 | 0.347 | 0.314 | 0.287 |
| NCI-H2126 | 0.338 | 0.348 | 0.331 | 0.347 | 0.345 | 0.88 | 0.907 | 0.933 | 0.814 | 0.901 | 0.95 | 1.07 | 0.99 | 0.989 | 1.01 | 0.324 | 0.368 | 0.352 | 0.276 | 0.232 |
| HOP-62 | 0.397 | 0.458 | 0.462 | 0.438 | 0.511 | 0.975 | 1.04 | 0.885 | 0.789 | 0.992 | 0.405 | 0.507 | 0.556 | 0.444 | 0.514 | 0.421 | 0.409 | 0.443 | 0.17 | 0.143 |
| CAL-12T | 0.334 | 0.498 | 0.517 | 0.404 | 0.491 | 0.4 | 0.65 | 0.93 | 0.143 | 0.408 | 0.65 | 0.718 | 0.506 | 0.645 | 0.724 | 0.431 | 0.351 | 0.249 | 0.127 | 0.132 |
| NCI-H1755 | 0.453 | 0.441 | 0.464 | 0.453 | 0.479 | 0.579 | 0.563 | 0.264 | 0.371 | 0.503 | 0.356 | 0.468 | 0.431 | 0.464 | 0.436 | 0.473 | 0.477 | 0.424 | 0.377 | 0.385 |
